# Experimental data published in patent US20120202840A1, “Use of Flubendazole and Vinca Alkaloids for Treatment of Hematological Diseases” (priority 2009, published 2012).
# Entries after “also recorded” stand apart in the source; their conditions may differ. Read-outs that look alike come from different tables or passages of the source.
# Tests used:
# [1] = rats, mice and guinea-pigs, cited from earlier work
# OCI-AML2 cells [2] = assay: Cell cycle analysis (PI, flow cytometry), OCI-AML2; type: cell-based; conditions: OCI-AML2, 1.0 μM, 24 h
# Procedure: OCI-AML2 cells (A) or PPC-1 cells (B) were incubated with 1.0 μM flubendazole or buffer control for 24 h. Cells were then stained with PI and the DNA content was measured by flow cytometry. A representative figure is shown.
# Cell cycle analysis was performed as described by Mao et al^31. Briefly, OCI-AML2 or PPC-1 cells were harvested, washed with cold PBS and resuspended in PBS and cold absolute ethanol. Cells were then treated with 100 ng/mL of DNase-free RNase A (Invitrogen, Carlsbad, Calif.) at 37° C. for 30 min, washed with cold PBS, resuspended in PBS and incubated with 50 μg/mL of propidium iodine (PI) for 15 min at room temperature in the dark. DNA content was measured by flow cytometry (FACSCalibur, Becton Dickinson, Florida, USA) and analyzed with FlowJo software version 7.0 (TreeStar, Ashland, Oreg.).
# [3] = cited from earlier work
# [4] = sheep, cited from earlier work
# bovine tubulin = assay: Tubulin polymerization assay; type: biochemical; conditions: cell-free, bovine tubulin 1.8 mg/ml; flubendazole 100 μM
# Procedure: A representative figure is shown.
# Polymerization of bovine tubulin was measured according to Beyer et al^28. Briefly, bovine tubulin (1.8 mg/ml; Cytoskeleton; Denver, USA) was added to ice cold polymerization buffer (PEM; 80 mM PIPES, 0.5 mM EGTA, 2 mM MgCl2, 10% glycerol and 1 mM GTP) and centrifuged at top speed in a microcentrifuge for 5 min at 4° C. […] Following addition of tubulin, the plate was immediately placed in the spectrophotometer, which was maintained at 37° C., and the absorbance measured every 3 minutes for 2.5 h at 340 nm.
# OCI-AML2 cells [5] = tested on: OCI-AML2 cells
# Procedure: Sub-lethally irradiated SCID mice were injected subcutaneously with OCI-AML2 cells (n=20; 10 per group). After implantation, mice were treated with 50 mg/kg flubendazole (A), 20 mg/kg flubendazole (B), or vehicle control by intraperitoneal injection daily. Tumor volume was measured over time. After 16 days (20 mg/kg dose) or 18 days (50 mg/kg dose), mice were sacrificed and tumors were excised, measured and weighted.
# Sub-lethally irradiated SCID mice were injected subcutaneously with OCI-AML2 cells (n=40; 10 per group). […] After 16 (C) or 18 (D) days, mice were sacrificed and tumors were excised, measured and weighted. Data represent the mean±SD tumor weight.
# (§1) Sub-lethally irradiated SCID mice were injected subcutaneously in the left flank with leukemia OCI-AML2 (2.0×10^6) or myeloma OPM2 (1.0×10^7) cells. Mice were then randomly assigned to receive flubendazole (in 0.9% NaCl and 0.01% tween-80) or vehicle control (0.9% NaCl and 0.01% tween-80) intraperitoneally. […] Tumor volumes (tumor length×width^2×0.5236) were monitored daily using calipers. At the end of the experiment (16-18 days), mice were sacrificed, tumors excised and tumor volume and weight measured. All animal studies were carried out according to the regulations of the Canadian Council on Animal Care and with the approval of the local ethics review board.
# A549.EpoB40 = assay: MTS assay, A549.EpoB40 (β-tubulin mutant); type: cell-based
# Procedure: (§2) Next, whether microtubule inhibition was functionally important for flubendazole's cytotoxicity was determined.
# (§3) Leukemia (U937, MDAY, CEM, CEM-VBL) and solid tumor cell lines (PPC-1, HeLa) were cultured in RPMI 1640 medium. The epidermoid carcinoma cell lines KB-3-1 and KB-4.0-HTI^23 were grown in Dulbecco's Modified Eagle Medium. The lung carcinoma cell lines A549 and A549.EpoB40 were grown in RPMI with the latter supplemented with 20% fetal calf serum (FCS), and 40 nM epothilone B.^24 Leukemia cell lines OCI-AML2, CEM, and NB4 and all the myeloma cell lines (OPM2, KMS11, JJN3 LP1, H929, L1, KMS12, KSM18 and OCI My5) were maintained in Iscove's Modified Dulbecco's Medium (IMDM). TEX cells were maintained in IMDM, 15% FCS, 1% penicillin-streptomycin, 2 mM L-glutamine, 20 ng/mL SCF, 2 ng/mL IL-3. Unless otherwise noted, all media were supplemented with 10% FCS, 100 units/mL of streptomycin and 100 μg/mL of penicillin (all from Hyclone, Logan, Utah). Cells were incubated in a humidified air atmosphere containing 5% CO2 at 37° C.
# (§4) Cell growth and viability was measured using the 3-(4,5-dimethylthiazol-2-yl)-5-(3-carboxymethoxyphenyl)-2-(4-sulfophenyl)-2H-tetrazolium inner salt (MTS) reduction assay (Promega, Madison, Wis.) according to the manufacture's protocol and as previously described^25. […] Optical density (OD) was measured at 490 nm.
# KB-3-1 = assay: MTS assay, KB-3-1 wild type; type: cell-based; conditions: Homo sapiens; KB-3-1, MTS assay, 3 replicates
# Procedure: as §2, §3, §4
# OPM2 cells = tested on: OPM2 cells
# Procedure: (C) Sub-lethally irradiated SCID mice were injected subcutaneously with OPM2 cells (n=20; 10 per group). […] Tumor volume and body weight was measured over time. After 17 days, mice were sacrificed and tumors were excised, measured and weighted.
# as §1
# [6] = single dose of 5 mg/kg intravenously
# [7] = OCI-AML2 xenograft, 20 or 50 mg/kg daily intraperitoneally, vs vehicle, p<0.0001
# [8] = OPM2 xenograft, 50 mg/kg daily intraperitoneally for 17 days, vs vehicle, p<0.05
structure (smiles),measurement,setting,value
COC(=O)Nc1nc2ccc(C(=O)c3ccc(F)cc3)cc2[nH]1 [flubendazole],LD50,[1]; intraperitoneal administration,> 400 mg/kg
same,LD50,[1]; oral administration,> 5000 mg/kg
same,cell cycle,OCI-AML2 cells [2],arrested cells in the G2 phase
same,toxicity,"[3]; healthy volunteers, single oral doses up to 2000 mg",without toxicity
same,toxicity,"[3]; humans, 40-50 mg/kg/day for 10 days, neurocysticercosis",no toxicity from the drug was reported
same,adverse effects,"[3]; patients, up to 50 mg/kg orally daily for up to 24 months",without serious adverse effects; also recorded: without adverse effect
same,estimated half life,[4]; after oral administration,6.5 h
same,fraction of flubendazole absorbed,[4]; oral,18%
same,area under the curve (AUC),"[4]; single dose of 5 mg/kg intravenously, over 36 hours",22 µM·h
same,area under the curve (AUC),[4]; [6],6530 ng·h/mL
same,toxicity,[4]; [6],no toxicity was observed
same,effect on tubulin polymerization / microtubule formation,bovine tubulin,inhibited tubulin polymerization
same,tumor growth,OCI-AML2 cells [5]; [7],significantly delayed tumor growth
same,tumor weights,OCI-AML2 cells [5]; [7],reduced tumor weights
same,"weight loss, behavioral changes or gross organ toxicity","OCI-AML2 cells [5]; mouse, in vivo","no evidence of weight loss, behavioral changes or gross organ toxicity"
same,IC50,"A549.EpoB40; A549.EpoB40, MTS assay, 3 replicates",800 ± 200 nM
same,IC50 lower in A549.EpoB40 than in A549 control cells,A549.EpoB40; ratio of IC50 values of Table 1,5 fold
same,IC50,KB-3-1,1900 ± 1100 nM
same,tumor growth,OPM2 cells; [8],significantly delayed tumor growth
same,tumor weights,OPM2 cells; [8],reduced tumor weights
same,"weight loss, behavioral changes or gross organ toxicity","OPM2 cells; mouse, in vivo","no evidence of weight loss, behavioral changes or gross organ toxicity"
